{"source": "patent US20210380547A1", "about": "“UREA DERIVATIVES FOR TREATING AND/OR PREVENTING CANCER” (CENTRE NATIONAL DE LA RECHERCHE SCIENTIFIQUE, priority 2018, published 2021)", "key": {"[1]": {"system": "malignant (ccRCC and hematological) cells", "experiment": "FACS analysis of cell death markers (AV, PI), malignant cells", "type": "cell-based, human", "settings": "5 μM, 48 h", "procedure": "FIG. 1: Observation by FACS analyses of early (Annexin AV) and late (Propidium Iodide, PI) apoptosis markers expressed by healthy and malignant cells after treatment with compounds #1 and #2 at 5 μM. CT: negative control.\n(§1) Apoptosis analysis: After stimulation, cells were washed with ice-cold PBS and were stained with the annexin-V-fluos staining kit (Roche, Meylan, France) according to the manufacturer's procedure. Fluorescence was measured by using the FL2 (AV) and FL3 (propidium iodide, PI) channels of a fluorescence-activated cell sorter apparatus (Calibur cytometer).\nTo complete these XTT assays, malignant (ccRCC and hematological) and healthy (human fibroblasts FHN) cells have been grown with compounds #1 or #2, and after 48h the expression of cell death markers (AV and PI) has been quantified by FACS analyses (FIG. 1)."}, "[2]": {"system": "RCC4", "experiment": "XTT cell viability assay, RCC4", "type": "cell-based", "settings": "Homo sapiens, XTT assay (48 h), standard deviation of 10%, read-out: EC50 (μM) Kidney RCC4", "procedure": "(§2) Fifty microliters of sodium 3′-[1-phenylaminocarbonyl)-3,4-tetrazolium]-bis(4-methoxy-6-nitro) benzene sulfonic acid hydrate (XTT) reagent was added to each well. The assay is based on the cleavage of the yellow tetrazolium salt XTT to form an orange formazan dye by metabolically active cells. The absorbance of the formazan product, reflecting cell viability, was measured at 490 nm. Each assay was performed in quadruplicate.\n(§3) Compounds #1-#14 have been assayed as potential anti-proliferative agents against a panel of human breast head and neck, and kidney tumor cells and hematological malignancies, selected on the basis of their aggressiveness (e.g. incurable triple-negative breast cancer cells: MDA-MB-231; kidney ccRCC cells: RCC4, A498 and 786-O and 786R; head and neck cancer cells: CAL33, CAL33RR, CAL27, and CAL27RR; acute myeloid cell lines: OCI-AML2, OCI-AML3, MolM13, and MolM14; myelodysplastic cell line: SM1; and chronic myeloid cell line: CML). All these cell lines share as common denominator the expression of CXCR1 and CXCR2. The EC50 values have been measured by a XTT colorimetric assay, and compared to those of SB-225002, used as a reference; the results are listed in Table 1."}, "[3]": {"system": "primary RCC cells (TF and CC)", "experiment": "XTT cell viability and colony assay, primary RCC cells", "type": "cell-based", "settings": "Homo sapiens, XTT 48 h, read-out: EC50 proliferation of primary kidney tumor cells", "procedure": "A: Primary RCC cells (TF and CC) and normal renal cells (15S) were treated with compound #1 (1 to 5 μM) for 48 h. Cell viability was measured by XTT assays;\nB: Primary RCC cells (TF and CC) were treated with compound #1 (1 or 2.5 μM) and colored with Giemsa blue after 10 days (representative results of an experiment repeated trice);\nas §2\nThe biological effects of compound #1 on primary RCC tumors cells and normal renal cells harvested from patients suffering from kidney cancer have been explored (FIG. 4)."}, "[4]": {"system": "CAL27RR", "experiment": "XTT cell viability assay, CAL27RR (cisplatin-resistant)", "type": "cell-based, human", "procedure": "A, B: Naive (Cal27, A), and cisplatine-resistant (Cal27R, B) Cal27 cells, were treated with compound #1 or cisplatine (1 to 10 μM) for 48 hr. Cell viability was measured by XTT assays;\nC, D: Cal27 (C), cal27R (D), were treated with 2.5 μM compound #1, 2.5 μM cisplatin for 24 h to 96 h. The metabolism of cells was measured by XTT assay.\nas §2, §3"}, "[5]": {"system": "A498 cells", "experiment": "Tumor xenograft experiment (ectopic model of RCC)", "type": "in vivo, mice", "procedure": "Cells were lysed in buffer containing 3% SDS, 10% glycerol and 0.825 mM Na2HPO4. 30 to 50 μg of proteins were separated on 10% SDS-PAGE, transferred onto a PVDF membrane (Immobilon, Millipore, France) and then exposed to the appropriate antibodies. Proteins were visualized with the ECL system using horseradish peroxidase-conjugated anti-rabbit or anti-mouse secondary antibodies.\nOne microgram of total RNA was used for the reverse transcription, using the QuantiTect Reverse Transcription kit (QIAGEN, Hilden, Germany), with a blend of oligo (dT) and random primers to prime first-strand synthesis. SYBR master mix plus (Eurogentec, Liege, Belgium) was used for qPCR. The mRNA level was normalized to 36B4 mRNA.\nEctopic model of RCC: seven million A498 cells were injected subcutaneously into the flank of 5-week-old nude (nu/nu) female mice (Janvier, France). The tumor volume was determined with a caliper (v=L*1^2*0.5). When the tumor reached 100 mm^3, mice were treated five a week for 4 weeks, by gavage with placebo (dextrose water vehicle) or compound #1 (50 mg/kg). This study was carried out in strict accordance with the recommendations in the Guide for the Care and Use of Laboratory Animals. Our experiments were approved by the “Comite national institutionnel d′éthique pour l'animal de laboratoire (CIEPAL)”\nSections from blocks of formol-fixed and paraffin-embedded tumors were examined for immunostaining. Sections were incubated with monoclonal anti-Ki67 (clone MIB1, DAKO, Ready to use) antibodies. Biotinylated secondary antibody (DAKO) was applied and binding was detected with the substrate diaminobenzidine against a hematoxylin counterstain.\nMice were xenografted with the highly aggressive ccRCC cells (A498), which form highly vascularized tumors."}, "[6]": {"system": "healthy cells 15S", "experiment": "FACS apoptosis markers, normal renal cells", "type": "cell-based, human", "settings": "48 h", "procedure": "C: Primary RCC cells (TF and CC) and normal renal cells (15S) were treated with compound #1 (1 to 5 μM) for 48 h. Cells were stained with the PI/annexin-V-fluos staining kit according to the manufacturer's indications. Histograms show both annexin-V+/PI− cells (open bars) and annexin-V+/PI+ cells (filled bars). *P<0.05; **P<0.01; ***P<0.001.\nas §1"}, "[7]": {"system": "CAL33", "experiment": "XTT cell viability assay, CAL33", "type": "cell-based", "settings": "Homo sapiens, CAL-33; XTT assay (48 h); standard deviation of 10%; read-out: EC50 (μM) Head and Neck CAL33", "procedure": "as §2, §3"}, "[8]": {"system": "CXCL7-dependent HuVEC migration", "experiment": "Boyden chamber migration assay, CXCL7-dependent", "type": "cell-based", "settings": "CXCL7 (50 ng/ml), 24 hr", "procedure": "CXCL7 or VEGFA-stimulated chemotaxis assays were monitored using modified Boyden chambers containing polycarbonate membranes (8-μm pores, Transwell; Corning, Sigma). Cells were seeded on the upper side of the filters and chambers were placed on 24-well plates containing CXCL7 (50 ng/ml) or VEGFA (50 ng/ml). Cells were allowed to migrate for 24 hr at 37° C. in 5% CO2. Migratory cells on the lower membrane surface were fixed in 3% paraformaldehyde, stained with 0.1% crystal violet."}}, "note": "Entries after “also recorded” stand apart in the source; their conditions may differ."}
{"smiles": "O=C(Nc1cccc(Cl)c1)Nc1nc2ccc([N+](=O)[O-])cc2s1", "note": "[Compound #1, 1-(3-chlorophenyl)-3-(6-nitrobenzo[d]thiazol-2-yl)urea]", "values": [{"measurement": "early (AV) and late (PI) apoptosis markers on malignant cells", "setting": "[1]", "result": "cytotoxic effect on malignant cells; also recorded: more efficient than compound #2"}, {"measurement": "EC50", "setting": "[2]", "result": 5, "unit": "µM"}, {"measurement": "EC50", "setting": "[3]", "result": "~2", "unit": "µM"}, {"measurement": "time of treatment to total inhibition of proliferation", "setting": "[4]; Cal27R cells, 2.5 μM, XTT 24 h to 96 h", "result": "approximately 70 hours"}, {"measurement": "EC50", "setting": "[4]; Homo sapiens, light or radiation study, XTT assay (48 h), resistant to irradiation and cisplatin, standard deviation of 10%, read-out: EC50 (μM) Head and Neck CAL27RR", "result": 2, "unit": "µM"}, {"measurement": "reduction of the tumor weight", "setting": "[5]; A498 xenograft, 50 mg/kg gavage, end of experiment", "result": "more than 35%"}, {"measurement": "reduction of tumor volume", "setting": "[5]; A498 xenograft, 50 mg/kg gavage, end of experiment (day 70)", "result": "more than 65%"}, {"measurement": "mRNA level of CXCL5 in tumors", "setting": "[5]; human, qPCR", "result": "significantly decreased"}, {"measurement": "mRNA level of CXCL7 in tumors", "setting": "[5]; human, qPCR", "result": "significantly decreased"}, {"measurement": "mRNA level of CXCL8 in tumors", "setting": "[5]; human, qPCR", "result": "significantly decreased"}, {"measurement": "mRNA level of VEGFA in tumors", "setting": "[5]; human, qPCR", "result": "not those of VEGFA"}, {"measurement": "AKT phosphorylation in tumor lysates", "setting": "[5]; immunoblotting", "result": "inhibits AKT"}, {"measurement": "ERK phosphorylation in tumor lysates", "setting": "[5]; immunoblotting", "result": "not ERK"}, {"measurement": "weight of the animals", "setting": "[5]; treated group, day 70", "result": "No weight loss"}, {"measurement": "labelling of the proliferation marker Ki-67", "setting": "[5]; tumor immunostaining", "result": "significantly decreases"}, {"measurement": "lowering of mRNA levels of murine CD31", "setting": "[5]; tumors, qPCR", "result": "more than 75%"}, {"measurement": "apoptosis markers in healthy cells 15S", "setting": "[6]", "result": "not the case with healthy cells 15S"}, {"measurement": "EC50", "setting": "[7]", "result": 2, "unit": "µM"}, {"measurement": "decrease of HuVECs motility", "setting": "[8]", "result": "more than 50%"}]}
